Counter-ions that a name gives are not always drawn.
target: T1, rh beta tryptase (Homo sapiens, UniProt P20231); experiment: Tryptase inhibition test (cleavage of N-p-tosyl-Gly-Pro-Lys-para-nitroaniline, p-nitroaniline measured at 405 nm); type: biochemical; details: concentration at which 50% of the tryptase enzyme activity is inhibited; substrate 0.6 mM, pH 7.4, 37° C.
T1 construct: purchased Promega
Summary of the method: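 Screening at 10 μM gives percent inhibition, with IC50 derived for compounds above 70% inhibition. Enzyme: rh beta tryptase, 0.91 U/ml, pH 7.4 Tris HCl (100 mM), 5 mM Ca, 100 mg/ml heparin. After 5 min compound pre-incubation, 0.6 mM pNA substrate cleaved 5 min at 37 °C, monitored at 405 nm.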

T1 sequence (P20231 31-275): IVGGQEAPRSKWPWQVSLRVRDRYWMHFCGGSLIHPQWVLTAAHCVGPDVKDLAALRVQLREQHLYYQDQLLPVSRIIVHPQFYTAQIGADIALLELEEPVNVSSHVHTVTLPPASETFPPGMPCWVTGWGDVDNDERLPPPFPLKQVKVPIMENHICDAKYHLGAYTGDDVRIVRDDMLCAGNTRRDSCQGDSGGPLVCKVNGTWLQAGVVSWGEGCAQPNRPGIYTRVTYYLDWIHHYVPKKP

Structure (SMILES)	IC50 [nM]
Cl.Cl.Cn1c(CCc2ccc(C(=N)N)cc2)nc2cc(C(=O)N(CCN(Cc3ccccc3)Cc3ccccc3)C3CCCCC3)ccc21 [Example 2, 2-[2-(4-Amidinophenyl)ethyl]-1-methyl-benzimidazol-5-yl-carboxylic Acid-N-[2-(N,N-dibenzylamino)ethyl]-N-cyclohexyl-amide-dihydrochloride]	153

system: not given; experiment: not given; details: not given

Structure (SMILES)	melting point [°C]
CN(C)CCN(C)C(=O)c1ccc2c(c1)nc(CCc1ccc(C(=N)N)cc1)n2C (as salt: hydrochloride) [Example 3, 2-[2-(4-Amidinophenyl)-ethyl]1l-methyl-benzimidazol-5-yl-carboxylic Acid-N-[2-(N,N-dimethylamino)-ethyl]-N-methyl-amide-dihydrochlonide]	> 220
CN(Cc1ccc(C(=N)N)cc1)C(=O)c1ccc2c(c1)nc(CCc1ccc(C(=N)N)cc1)n2C (as salt: hydrochloride) [Example 4, 2-[2-(4-Amidinophenyl)-ethyl]-1-methyl-benzimidazol-5-yl-carboxylic Acid-N-(4-amidino-benzyl)-N-methyl-amide-trihydrochloride]	> 220
Cn1c(CCc2ccc(C(=N)N)cc2)nc2cc(C(=O)N(CCC(=N)N)Cc3cnc4ccccc4c3)ccc21 (as salt: hydrochloride) [Example 8, 2-[2-(4-Amidinophenyl)-ethyl]-1-methyl-benzimidazol-5-yl-carboxylic Acid-N-(2-amidinoethyl)-N-(quinolin-3-yl-methyl)-amide-dihydrochloride]	> 220
Cn1c(CCc2ccc(C(=N)N)cc2)nc2cc(C(=O)N(CCC(=N)N)Cc3ccccc3)ccc21 (as salt: hydrochloride) [Example 9, 2-[2-(4-Amidinophenyl)-ethyl]-1-methyl-benzimidazol-5-yl-carboxylic Acid-N-(2-amidinoethyl)-N-benzyl-amide-dihydrochloride]	> 220
Cn1c(CCc2ccc(C(=N)N)cc2)nc2cc(C(=O)N(CCC(=N)N)Cc3cccnc3)ccc21 (as salt: hydrochloride) [Example 10, 2-[2-(4-Amidinophenyl)-ethyl]-1-methyl-benzimidazol-5-yl-carboxylic Acid-N-(2-amidinoethyl)-N-(3-pyridylmethyl)-amide-dihydrochloride]	225 to 228
CC(C)CN(CCC(=N)N)C(=O)c1ccc2c(c1)nc(CCc1ccc(C(=N)N)cc1)n2C (as salt: hydrochloride) [Example 11, 2-[2-(4-Amidinophenyl)-ethyl]-1-methyl-benzimidazol-5-yl-carboxylic Acid-N-(2-amidinoethyl)-N-iso-butyl-amide-dihydrochloride]	204 to 210
CN(C(=O)c1ccc2c(c1)nc(CCc1ccc(C(=N)N)cc1)n2C)c1cccnc1 (as salt: hydrochloride) [Example 18, 2-[2-(4-Amidinophenyl)-ethyl]-1-methyl-benzimidazol-5-yl-carboxylic Acid-N-methyl-N-(3-pyridyl)-amide-hydrochloride]	> 220
Cn1c(CCc2ccc(C(=N)N)cc2)nc2cc(C(=O)N(CCC(=N)N)CCc3ccccc3)ccc21 (as salt: hydrochloride) [Example 24, 2-[2-(4-Amidinophenyl)-ethyl]-1-methyl-benzimidazol-5-yl-carboxylic Acid-N-(2-amidinoethyl)-N-(2-phenylethyl)-amide-dihydrochloride]	185 to 190
Cn1c(CCc2ccc(C(=N)N)cc2)nc2cc(C(=O)N(CCC(=N)N)C3CCCCCCC3)ccc21 (as salt: hydrochloride) [Example 25, 2-[2-(4-Amidinophenyl)-ethyl]-1-methyl-benzimidazol-5-yl-carboxylic Acid-N-(2-amidinoethyl)-N-cyclooctyl-amide-dihydrochloride]	200 to 210
Cc1ccc(N(CCC(=N)N)C(=O)c2ccc3c(c2)nc(CCc2ccc(C(=N)N)cc2)n3C)cc1 (as salt: hydrochloride) [Example 26, 2-[2-(4-Amidinophenyl)-ethyl]-1-methyl-benzimidazol-5-yl-carboxylic Acid-N-(2-amidinoethyl)-N-(4-methyl-phenyl)-amide-dihydrochloride]	222 to 225
CC(C)N(CCC(=N)N)C(=O)c1ccc2c(c1)nc(CCc1ccc(C(=N)N)cc1)n2C (as salt: hydrochloride) [Example 27, 2-[2-(4-Amidinophenyl)-ethyl]-1-methyl-benzimidazol-5-yl-carboxylic Acid-N-(2-amidinoethyl)-N-iso-propyl-amide-dihydrochloride]	195 to 200
Cn1c(CCc2ccc(CN)cc2)nc2cc(C(=O)NCCC(c3ccccc3)c3ccccc3)ccc21 (as salt: hydrochloride) [Example 40, 2-[2-(4-Aminomethyl-phenyl)-ethyl]-1-methyl-benzimidazol-5-yl-carboxylic Acid-N-(3,3-diphenylpropyl)-amide-dihydrochloride]	140
Cn1c(CCc2ccc(CN)cc2)nc2cc(C(=O)N(CCC(c3ccccc3)c3ccccc3)Cc3ccc(CN)cc3)ccc21 (as salt: hydrochloride) [Example 43, 2-[2-(4-Aminomethyl-phenyl)-ethyl]-1-methyl-benzimidazol-5-yl-carboxylic Acid-N-(4-aminomethylbenzyl)-N-(3,3-diphenylpropyl)-amide-dihydrochloride]	140
Cl.Cl.Cn1c(CCc2ccc(C(=N)N)cc2)nc2cc(C(=O)N(CCN(Cc3ccccc3)Cc3ccccc3)C3CCCCC3)ccc21 [Example 2, 2-[2-(4-Amidinophenyl)ethyl]-1-methyl-benzimidazol-5-yl-carboxylic Acid-N-[2-(N,N-dibenzylamino)ethyl]-N-cyclohexyl-amide-dihydrochloride]	140 to 148
Cn1c(CCc2ccc(C(=N)N)cc2)nc2cc(C(=O)NC(Cc3ccc(C(=N)N)cc3)C(=O)O)ccc21 (stereo not shown) [Example 30, 2-{2-[2-(4-Amidinophenyl)-ethyl]-1-methyl-benzimidazol-5-yl-carbonylamino}-3-(4-amidinophenyl)-propionic Acid-diformate]	165

Source: patent US6512000B1, “Aminocarbonyl-substituted benzimidazoles having tryptase-inhibitory activity” (Boehringer Ingelheim Pharma KG, priority 1999, dated 2003)
